From a compilation of properties of binary mixtures (doi:10.1016/j.molliq.2012.02.014)

Assay: xn = mol fraction of the nth substance listed
Conditions: 101 kPa

CN(CCO)CCO + CCCCCC[n+]1ccn(C)c1.O=S(=O)([N-]S(=O)(=O)C(F)(F)F)C(F)(F)F
x1 = 1
Conditions | viscosity [mPa·s]
308.15 K | 46.2
323.15 K | 24.7

CCCCCC[n+]1ccn(C)c1.O=S(=O)([N-]S(=O)(=O)C(F)(F)F)C(F)(F)F + CN(CCO)CCO
viscosity [mPa·s]
Conditions | x2 = 0 | x2 = 0.0989 | x2 = 0.1899 | x2 = 0.2977 | x2 = 0.3999 | x2 = 0.4988 | x2 = 0.6075 | x2 = 0.7049 | x2 = 0.801 | x2 = 0.899
303.15 K | – | 52.4 | 46.6 | 40.8 | 37 | 35.1 | 39 | 44.3 | – | 55.1
308.15 K | 50.4 | – | 42.1 | 38 | – | 31.3 | 33.7 | 37.4 | 40.8 | 43.7
313.15 K | 41.4 | 39.2 | 36.7 | 34 | – | 29.8 | – | 31.8 | 34.3 | –
318.15 K | 35 | 33.1 | 30.8 | 27.9 | 25.4 | 23.9 | 23.8 | – | 27.3 | 28.9
323.15 K | 28.8 | 27.7 | 26 | – | 22.8 | 22.1 | 22.4 | – | 23.7 | 24.4
